Tests used:
DPP-IV = biological target: T1, DPP-IV (Homo sapiens, UniProt P27487); assay: DPP-IV assay with Caco-2 cell extract as DPP IV source, AFC substrate, fluorescence; type: biochemical; conditions: extract of human colon carcinoma cell line Caco-2; substrate 100 μM; 60 minutes at ambient temperature; read-out: DPP IV inhibition IC50
T1 construct: an extract of the human colon carcinoma cell line Caco-2 is used as the DPP IV source; endogenous in cells; host or cells: Caco-2 (human colon carcinoma), differentiated to induce DPP-IV expression; Nonidet-P40 solubilised extract
T1 sequence (P27487 whole entry): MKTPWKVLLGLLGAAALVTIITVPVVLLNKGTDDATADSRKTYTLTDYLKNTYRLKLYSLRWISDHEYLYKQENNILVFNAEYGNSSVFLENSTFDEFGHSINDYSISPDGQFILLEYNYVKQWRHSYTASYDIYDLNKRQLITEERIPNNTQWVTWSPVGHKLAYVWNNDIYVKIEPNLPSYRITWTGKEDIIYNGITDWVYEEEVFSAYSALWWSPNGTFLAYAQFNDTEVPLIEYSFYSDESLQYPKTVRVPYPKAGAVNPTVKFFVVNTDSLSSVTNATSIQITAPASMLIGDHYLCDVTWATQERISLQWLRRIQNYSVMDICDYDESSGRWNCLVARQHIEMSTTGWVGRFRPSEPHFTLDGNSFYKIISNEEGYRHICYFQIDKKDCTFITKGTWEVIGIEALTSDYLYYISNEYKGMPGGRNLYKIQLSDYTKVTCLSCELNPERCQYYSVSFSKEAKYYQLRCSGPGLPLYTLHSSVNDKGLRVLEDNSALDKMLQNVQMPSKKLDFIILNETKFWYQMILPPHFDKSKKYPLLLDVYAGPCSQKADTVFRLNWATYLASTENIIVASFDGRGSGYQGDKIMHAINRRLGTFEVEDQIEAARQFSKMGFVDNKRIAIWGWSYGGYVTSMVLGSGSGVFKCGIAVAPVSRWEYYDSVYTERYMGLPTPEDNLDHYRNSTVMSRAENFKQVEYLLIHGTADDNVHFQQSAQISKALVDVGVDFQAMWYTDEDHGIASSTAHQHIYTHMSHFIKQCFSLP
Procedure: The cell extract was obtained from cells solubilised in a buffer (10 mM Tris HCl, 0.15 M NaCl, 0.04 t.i.u. aprotinin, 0.5% Nonidet-P40, pH 8.0) by centrifugation at 35,000 g for 30 minutes at 4° C. (to remove cell debris).
The DPP-IV assay was carried out as follows:
50 μl of substrate solution (AFC; AFC is amido-4-trifluoromethylcoumarin), final concentration 100 μM, were placed in black microtitre plates. 20 μl of assay buffer (final concentrations 50 mM Tris HCl pH 7.8, 50 mM NaCl, 1% DMSO) was pipetted in. The reaction was started by the addition of 30 μl of solubilised Caco-2 protein (final concentration 0.14 μg of protein per well). The test substances under investigation were typically added prediluted to 20 μl, while the volume of assay buffer was then reduced accordingly. The reaction was carried out at ambient temperature, the incubation period was 60 minutes. […] Dummy values (corresponding to 0% activity) were obtained in mixtures with no Caco-2 protein (volume replaced by assay buffer), control values (corresponding to 100% activity) were obtained in mixtures without any added substance.

rats = assay: Tolerability: behavior of rats after oral administration; type: in vivo; conditions: oral administration of 10 mg/kg

Row | IC50 (DPP-IV) | SMILES | changes in the behavior of rats (tolerability) (rats)
1 | 382 nM | NC1CCCN(c2nnc(C(=O)NCc3cccc4ccccc34)n2Cc2ccccc2Cl)C1 (centres unmarked) [Example 4, 3-(3-amino-piperidin-1-yl)-4-(2-chloro-benzyl)-5-(naphth-1-ylmethylaminocarbonyl)-4H-[1,2,4]triazole] | –
2 | 386 nM | CC(C)=CCn1c(C(=O)NCc2cccc3ccccc23)nnc1N1CCCNCC1 [2(2), 3-([1,4]diazepan-1-yl)-4-(3-methyl-but-2-enyl)-5-(naphth-1-ylmethylaminocarbonyl)-4H-[1,2,4]triazole] | –
3 | 101 nM | NC1CCCN(c2nnc(C(=O)NCc3cccc4ccccc34)n2Cc2ccccc2)C1 (centres unmarked) [3(1), 3-(3-amino-piperidin-1-yl)-4-benzyl-5-(naphth-1-ylmethylaminocarbonyl)-4H-[1,2,4]triazole] | –
4 | 36 nM | CC#CCn1c(C(=O)NCc2ccc3ncccc3c2)nnc1N1CCCC(N)C1 (centres unmarked) [4(2), 3-(3-amino-piperidin-1-yl)-4-(but-2-ynyl)-5-(quinolin-6-ylmethylaminocarbonyl)-4H-[1,2,4]triazole] | –
5 | – | CC#CCn1c(C(=O)NCc2nc(C)cc3ccccc23)nnc1N1CCCC(N)C1 (centres unmarked) [Example 4(1), 3-(3-amino-piperidin-1-yl)-4-(but-2-ynyl)-5-(3-methyl-isoquinolin-1-ylmethylaminocarbonyl)-4H-[1,2,4]triazole] | no changes in the behavior of rats could be detected
6 | 101 nM | CC(C)=CCn1c(C(=O)NCc2cccc3ccccc23)nnc1N1CCCC(N)C1 (centres unmarked) [Example 3, 3-(3-amino-piperidin-1-yl)-4-(3-methyl-but-2-enyl)-5-(naphth-1-ylmethylaminocarbonyl)-4H-[1,2,4]triazole] | –
7 | 367 nM | CC(C)=CCn1c(C(=O)NCc2cccc3ccccc23)nnc1N1CCNCC1 [Example 2, 3-(piperazin-1-yl)-4-(3-methyl-but-2-enyl)-5-(naphth-1-ylmethylaminocarbonyl)-4H-[1,2,4]triazole] | –
8 | 41 nM | CC#CCn1c(C(=O)NCc2nc3ccccc3c3ccccc23)cnc1N1CCCC(N)C1 (centres unmarked) [1(2), 1-(but-2-ynyl)-2-(3-amino-piperidin-1-yl)-5-(phenanthridin-6-ylmethylaminocarbonyl)-1H-imidazole] | –

From US7470716B2, “Imidazoles and triazoles, their preparation, and their use as pharmaceutical compositions” (Boehringer Ingelheim International GmbH, priority 2004, dated 2008)
